Test results reported in patent US20230302022A1, “PREVENTING OR MITIGATING CHEMOTHERAPY INDUCED ALOPECIA USING VITAMIN D” (priority 2016, published 2023).
“Also recorded” adds a separate entry of the source.

Columns and labels:
[1] = tested on: PaCa2 (pancreatic carcinoma); test: Cell growth / viability assay, PaCa2; type: cell-based
Method: The drug treatment period was usually three days. At the end of the three days, the background OD of the 96-well plate was read at 280 nm, before 20 μL of the “Substrate Cell Titer 96 Aqueous One Solution Reagent” (Promega) was added to each well. The plate was returned to the 37° C. incubator, and its OD at 490 nm was read each hour until an OD of approximately 1.5 was reached. The net OD increase was calculated by subtracting the pre-substrate OD reading.
The impact of the drug on the cells was calculated by comparing the OD at different concentrations in relation to the OD of the control wells (without the drug).
Then these pretreated cells were utilized to set up the cell based assay.

[2] = tested on: Long Evans rats; test: CIA in chloroleukemic Long Evans rats receiving multi-course chemotherapy; type: in vivo, rat; parameters: protection from CIA: concentration or dose not given beside the values; conditions: for protection from CIA: both cycles
[3] = tested on: guinea pigs; test: Skin sensitization study in guinea pigs; type: in vivo, guinea pig; conditions: 5.7 μg/g
Method: Induction phase. […] The induction exposure was repeated at the same skin site once a week for 2 weeks. The vehicle and positive control groups composed of 5 male and 5 female guinea pigs, each of which were exposed in the same manner as the treatment group to propylene glycol/anhydrous ethanol or hexylcinnamic aldehyde (a known mild to moderate skin-sensitizer), respectively. Skin reactions were scored and recorded at approximately 24 hours after patch removal during the induction phase. After the last induction exposure, the animals remained untreated for two weeks before the challenge exposure.
Challenge phase. The challenge exposure was conducted two weeks after the final topical induction. The test article was topically applied to the Vehicle Control and Test Group at the concentration determined to be non-irritating in the irritation screen. The Vehicle Control Group was also challenged with the Vehicle. The Positive Control Groups received the positive control article. The challenge application sites were scored at approximately 24 and 48 hours after patch removal.

[4] = tested on: Sprague Dawley rats; test: Cyclophosphamide-induced alopecia in neonatal Sprague Dawley rats, 1,25(OH)2D3 in ethanol; type: in vivo, rat; conditions: 0.2 μg 1,25(OH)2D3 in 150 μL ethanol daily day 5-10, all animals
Method: Neonatal Rat model and PCA model. Sprague Dawley rats were purchased from Charles River Laboratories (Wilmington, MA). C3H/HeJ mouse were purchased from Jackson Laboratories (Bar Harbour, ME). Rodents were housed and fed according to NIH guidelines. […] Uskokovic (Hoffman-La Roche, Nutley, NJ). For experiments involving C3H/HeJ mice, 1,25(OH)2D3 was purchased from Sigma (St. Louis, M0). Topical application of 1,25(OH)2D3. 1,25(OH)2D3 was dissolved in absolute ethanol and applied topically with an applicator. Control animals were similarly treated with vehicle only. Animals were then isolated for a period of 3 hours following which the treated area was washed with soap and water and dried. For CIA experiments, 1,25(OH)2D3 was given daily beginning on day 5 after birth and ending on day 10. […] For CIA and PCA, the experimental group was treated with 0.2 μg of 1,25(OH)2D3 in 150 μL of absolute ethanol applied topically over the head and neck. In both instances, the control group received ethanol vehicle only. […] Both chemotherapies were started at 11 days of age. Alopecia was recorded on the tenth day after the first dose of chemotherapy. […] Rats were randomized into two groups of ten rats each. One group received vehicle control, while the other received 0.2 μg 1,25(OH)2D3. […] Animals were observed until complete hair regrowth was obtained.

Structure (SMILES): C=C1/C(=C\C=C2/CCC[C@]3(C)[C@@H]([C@H](C)CCCC(C)(C)O)CC[C@@H]23)C[C@@H](O)C[C@@H]1O [Calcitriol, (5Z,7E)-9,10-secocholesta-5,7.10(19Hriene-1 a,33.25-triol]
- effect of calcitriol on cell growth ([1]; PaCa2, wide range of calcitriol concentrations): no significant growth promoting or growth inhibiting effects; also recorded: not responsive
- effect of calcitriol on the cytotoxic effect of Doxorubicin ([1]; PaCa-2): did not appear to appreciably alter
- 5-FU ED50 curve with vs without calcitriol ([1]; PaCa-2, 0.1 μg/mL calcitriol): not significantly different
- response to doxorubicin, cisplatin and erlotinib after calcitriol exposure ([1]; PaCa-2, 0.1 μg/mL calcitriol for two passages): did not alter
- ALOPECIA 0 (number of rats) ([2]; ADM, Paclitaxel and Etoposide, after First Round): 40
- ALOPECIA 0 (number of rats) ([2]; ADM, Paclitaxel and Etoposide, after Second Round): 32
- ALOPECIA 0 (number of rats) ([2]; CTX and Doxorubicin (ADM), after First Round): 40
- ALOPECIA 0 (number of rats) ([2]; CTX and Doxorubicin (ADM), after Second Round): 20
- ALOPECIA 0 (number of rats) ([2]; CTX, ADM and Cytarabine (ARA-C), after First Round): 40
- ALOPECIA 0 (number of rats) ([2]; CTX, ADM and Cytarabine (ARA-C), after Second Round): 31
- ALOPECIA 0 (number of rats) ([2]; CTX, Paclitaxel and Etoposide, after First Round): 40
- ALOPECIA 0 (number of rats) ([2]; CTX, Paclitaxel and Etoposide, after Second Round): 33
- ALOPECIA 0 (number of rats) ([2]; Cyclophosphamide (CTX), after First Round of Chemotherapy): 40
- ALOPECIA 0 (number of rats) ([2]; Cyclophosphamide (CTX), after Second Round of Chemotherapy): 10
- protection from CIA ([2]; cyclophosphamide and doxorubicin group): 100%
- extent of alopecia (grade), all rats ([2]; cyclophosphamide and doxorubicin regimen, after the first round): did not exhibit any signs of alopecia
- protection from CIA ([2]; cyclophosphamide group): 100%
- extent of alopecia (grade), all rats ([2]; cyclophosphamide regimen, after the first round of chemotherapy): did not exhibit any signs of alopecia
- protection from CIA ([2]; cyclophosphamide, doxorubicin and cytarabine group): 100%
- extent of alopecia (grade), all rats ([2]; cyclophosphamide, doxorubicin and cytarabine regimen, after the first round): did not exhibit any signs of alopecia
- protection from CIA ([2]; cyclophosphamide, paclitaxel and etoposide group): 100%
- extent of alopecia (grade), all rats ([2]; cyclophosphamide, paclitaxel and etoposide regimen, after the first round): did not exhibit any signs of alopecia
- protection from CIA ([2]; doxorubicin, paclitaxel and etoposide group): 100%
- extent of alopecia (grade), all rats ([2]; doxorubicin, paclitaxel and etoposide regimen, after the first round): did not exhibit any signs of alopecia
- skin sensitization [3]: not determined to be a sensitizer
- cyclophosphamide-induced alopecia [4]: did not develop alopecia
